In patent US11446287B2, “Compounds and methods for EP300 or CBP modulation and indications therefor” (Opna Immuno-Oncology SA, priority 2019, dated 2022):

Each compound was assayed against T1, Recombinant human CBP containing the bromodomain (CBP-BD (1043-1159)) (Homo sapiens, UniProt Q92793) (assay: CBP Alphascreen binding assay). Settings: read-out: CREBBP (CBP) IC50.
T1 construct: Recombinant human CBP bromodomain (CBP-BD (1043-1159)); made in house; host or cells: E. coli BL21-CodonPlus (DE3), modified pET vector
T1 sequence (Q92793 1081-1197): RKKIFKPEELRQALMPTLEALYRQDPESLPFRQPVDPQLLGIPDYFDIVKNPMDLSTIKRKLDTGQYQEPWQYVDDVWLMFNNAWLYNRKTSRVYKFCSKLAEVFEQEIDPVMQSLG
Procedure: CBP Alphascreen Binding Assay
Binding of compounds of Formula (I) with CBP was assessed using Alphascreen™ binding assay. The inhibition of the interaction between the CBP bromodomain and its acetylated target protein was measured quantitatively using recombinant CBP, an acetylated Histone 3 peptide and AlphaScreen™ technology. In absence of inhibition of the CBP protein bound to AlphaScreen™ nickel chelate acceptor beads can interact with the acetylated Histone 3 peptide which was immobilized by the AlphaScreen™ Streptavidin coated beads. This interaction brings donor and acceptor beads in proximity. The close proximity allows the singlet oxygen produced by laser excitation of the donor beads to reach the acceptor beads and generate a luminescence signal. CBP inhibitors result in a decrease in the proximity signal through an inhibition of the CBP—acetylated peptide interaction.
Recombinant human CBP containing the bromodomain (CBP-BD (1043-1159)) was prepared and purified as described in protein expression and purification session. The peptide was human Histone H345-64K56Ac-Biotin (Anaspec CA, USA).
Protocol for CBP assay: All components are prepared in buffer composed of 50 mM HEPES pH 7.5, 50 mM NaCl, 0.01% BSA, 0.01% Triton X-100, 2 mM DTT. Test compounds and DMSO vehicle are diluted 1:50 in buffer and a 4 μL volume was transferred to an Alphaplate. 5.5 μL of CBP protein and 5.5 μL of peptide are added to wells containing 4 μL of various concentrations of test compounds of Formula (I) or DMSO vehicle in an Alphaplate (PerkinElmer GA, USA) and incubated for 1 hour at room temperature. 5 μL donor and acceptor bead mixture was then added with final concentrations of 7.5 μg/ml. 60 minutes after bead addition, Alpha signal was read on the Envision spectrometer (λEx 680 nm, λEm 520-620 nm). Final concentrations of bromodomain proteins and peptide are as shown below.
All data were normalized to the mean of 16 high and 16 low control wells on each plate. A four parameter curve fit of the following formula was then applied: Y=A+((B−A)/(1+((C/x)^D))) Where ‘A’ is the minimum, ‘B’ is the maximum, ‘C’ is the IC50 and ‘D’ is the Hill slope. Protein Expression and Purification
Recombinant human CBP bromodomain (CBP-BD (1043-1159)) was expressed in E. coli cells (in a modified pET vector) with an N-terminal six-His tag and purified using a combination of both IMAC (Ni-affinity) and size exclusion chromatography steps.
Recombinant CBP protein was expressed using the E. coli strain BL21-CodonPlus (DE3) (Agilent Technologies CA, USA). Cells were grown in Terrific Broth (TB) media to an OD600 of 0.92 at 37° C. at which temperature was reduced to 20° C., protein was induced with 1.0 mM isopropyl-β-D-thiogalactopyranoside (“IPTG”) for 20 hours and harvested by centrifugation at 8500×g for 20 minutes. Cells were re-suspended in 0.1M K2PO4 pH 8.0, 250 mM NaCl, 10% Glycerol, 0.75% NP-40, 25 mM Imidazole, with 0.2 mg/ml Lysozyme, 0.2 mM phenylmethanesulfonyl fluoride (“PMSF”), […] (“BME”), 25 μg/ml DNase I, incubated on ice for 30 minutes and lysed with a cell disruptor (MicroFluidics MA, USA). The lysate was clarified by centrifugation at 20,000×g for 1 hour. The protein was captured with Ni-NTA resin (Life Technologies, USA). Contaminating proteins were washed off with 40 mM HEPES pH 7.5, 500 mM NaCl, 5% Glycerol, 5 mM Imidazole, and 5 mM BME. Following 3× wash steps, protein was eluted using 400 mM Imidazole in 40 mM HEPES pH 7.5, 400 mM NaCl, and 5 mM BME. The protein was further purified using a size exclusion column (26/600 Superdex 200, GE Biosciences NJ, USA) in 40 mM HEPES pH 7.5, 250 mM NaCl, 5 mM BME. The protein was aliquoted and flash-frozen in liquid Nitrogen.

First: Cc1noc(C)c1-c1cnc2c(CC3CCC3)cn(-c3ccc([N+](=O)[O-])cc3F)c2c1 [P-0130, 4-(3-(cyclobutylmethyl)-1-(2-fluoro-4-nitrophenyl)-1H-pyrrolo[3,2-b]pyridin-6-yl)-3,5-dimethylisoxazole]
Second: COc1ccc(-n2cc(CC3CCC3)c3ncc(-c4c(C)noc4C)cc32)cn1 [P-0134, 4-(3-(cyclobutylmethyl)-1-(6-methoxypyridin-3-yl)-1H-pyrrolo[3,2-b]pyridin-6-yl)-3,5-dimethylisoxazole]
The IC50 of the first is higher: 8 to 1000 µM for the first, 1 to 8 µM for the second. The second is the more potent here.

`CCOc1cc(C(=O)O)cc(OCC)c1-c1cn([C@@H](C)c2ccccn2)c2ncc(-c3c(C)noc3C)cc12` [P-0147, (S)-4-(5-(3,5-dimethylisoxazol-4-yl)-1-(1-(pyridin-2-yl)ethyl)-1H-pyrrolo[2,3-b]pyridin-3-yl)-3,5-diethoxybenzoic acid] and `CCCOc1cc(C(=O)O)cc(OCCC)c1-c1cn([C@@H](C)c2ccccn2)c2ncc(-c3c(C)noc3C)cc12` [P-0117, (S)-4-(5-(3,5-dimethylisoxazol-4-yl)-1-(1-(pyridin-2-yl)ethyl)-1H-pyrrolo[2,3-b]pyridin-3-yl)-3,5-dipropoxybenzoic acid] fall in the same range of IC50: 0.0001 to 1 µM for the first, 0.0001 to 1 µM for the second.

`COc1cc(C(=O)O)cc(OCC(F)(F)F)c1-c1cn([C@@H](C)c2ccccn2)c2ncc(-c3c(C)noc3C)cc12` [P-0153, (S)-4-(5-(3,5-dimethylisoxazol-4-yl)-1-(1-(pyridin-2-yl)ethyl)-1H-pyrrolo[2,3-b]pyridin-3-yl)-3-methoxy-5-(2,2,2-trifluoroethoxy)benzoic acid] and `COc1cc(C(=O)O)cc(OC)c1-c1cn([C@@H](C)c2ccccn2)c2ncc(-c3c(C)noc3C)cc12` [P-0103, (S)-4-(5-(3,5-dimethylisoxazol-4-yl)-1-(1-(pyridin-2-yl)ethyl)-1H-pyrrolo[2,3-b]pyridin-3-yl)-3,5-dimethoxybenzoic acid] fall in the same range of IC50: 0.0001 to 1 µM for the first, 0.0001 to 1 µM for the second.

`Cc1noc(C)c1-c1cnc2c(CC3CCC3)cn(-c3c(OC(C)C)cc(C(=O)O)cc3OC(C)C)c2c1` [P-0111, 4-(3-(cyclobutylmethyl)-6-(3,5-dimethylisoxazol-4-yl)-1H-pyrrolo[3,2-b]pyridin-1-yl)-3,5-diisopropoxybenzoic acid] and `CCOc1cc(C(=O)O)cc(OCC)c1-n1cc(CC2CCC2)c2ncc(-c3c(C)noc3C)cc21` [P-0109, 4-(3-(cyclobutylmethyl)-6-(3,5-dimethylisoxazol-4-yl)-1H-pyrrolo[3,2-b]pyridin-1-yl)-3,5-diethoxybenzoic acid] fall in the same range of IC50: 0.0001 to 1 µM for the first, 0.0001 to 1 µM for the second.

`Cc1noc(C)c1-c1cnc2c(c1)c(-c1ccc(C(=O)O)cc1)cn2C(c1ccccn1)c1ccccn1` [P-0012, 4-(1-(di(pyridin-2-yl)methyl)-5-(3,5-dimethylisoxazol-4-yl)-1H-pyrrolo[2,3-b]pyridin-3-yl)benzoic acid] and `Cc1noc(C)c1-c1cnc2c(c1)c(-c1ccc(C(=O)O)cc1)cn2C(c1ccccn1)C1CCC1` (stereo not drawn) [P-0008, 4-(1-(cyclobutyl(pyridin-2-yl)methyl)-5-(3,5-dimethylisoxazol-4-yl)-1H-pyrrolo[2,3-b]pyridin-3-yl)benzoic acid] fall in the same range of IC50: 0.0001 to 1 µM for the first, 0.0001 to 1 µM for the second.

`COc1cc(C(=O)O)cc(O)c1-c1cn([C@@H](C)c2ccccn2)c2ncc(-c3c(C)noc3C)cc12` [P-0144, (S)-4-(5-(3,5-dimethylisoxazol-4-yl)-1-(1-(pyridin-2-yl)ethyl)-1H-pyrrolo[2,3-b]pyridin-3-yl)-3-hydroxy-5-methoxybenzoic acid] and `COc1cc(C(=O)O)cc(OCc2ccccc2)c1-c1cn([C@@H](C)c2ccccn2)c2ncc(-c3c(C)noc3C)cc12` [P-0135, (S)-3-(benzyloxy)-4-(5-(3,5-dimethylisoxazol-4-yl)-1-(1-(pyridin-2-yl)ethyl)-1H-pyrrolo[2,3-b]pyridin-3-yl)-5-methoxybenzoic acid] fall in the same range of IC50: 0.0001 to 1 µM for the first, 0.0001 to 1 µM for the second.

Compared with `Cc1noc(C)c1-c1cnc2c(-c3cc(C(=O)O)ccc3Cl)cn(C(C)c3ccccc3)c2c1` (stereo not drawn) [P-0141, 4-chloro-3-(6-(3,5-dimethylisoxazol-4-yl)-1-(1-phenylethyl)-1H-pyrrolo[3,2-b]pyridin-3-yl)benzoic acid], `COc1ccc(C(=O)O)cc1-c1cn(C(C)c2ccccc2)c2cc(-c3c(C)noc3C)cnc12` (stereo not drawn) [P-0140, 3-(6-(3,5-dimethylisoxazol-4-yl)-1-(1-phenylethyl)-1H-pyrrolo[3,2-b]pyridin-3-yl)-4-methoxybenzoic acid] is higher in IC50: 0.0001 to 1 µM for the first, 1 to 8 µM for the second. The first is the more potent here.

`Cc1noc(C)c1-c1cnc2c(c1)c(-c1ccc(C(=O)O)cn1)cn2C(C)c1ccccn1` (stereo not drawn) [P-0123, 6-(5-(3,5-dimethylisoxazol-4-yl)-1-(1-(pyridin-2-yl)ethyl)-1H-pyrrolo[2,3-b]pyridin-3-yl)nicotinic acid] and `Cc1noc(C)c1-c1cnc2c(c1)c(-c1cc(C(=O)O)ccn1)cn2C(C)c1ccccn1` (stereo not drawn) [P-0124, 2-(5-(3,5-dimethylisoxazol-4-yl)-1-(1-(pyridin-2-yl)ethyl)-1H-pyrrolo[2,3-b]pyridin-3-yl)isonicotinic acid] fall in the same range of IC50: 0.0001 to 1 µM for the first, 0.0001 to 1 µM for the second.

`Cc1noc(C)c1-c1cc2c(cn1)c(CC1CCC1)cn2-c1c(Cl)cc(C(=O)O)cc1Cl` [P-0149, 3,5-dichloro-4-(3-(cyclobutylmethyl)-6-(3,5-dimethylisoxazol-4-yl)-1H-pyrrolo[3,2-c]pyridin-1-yl)benzoic acid] and `CCOc1cc(C(=O)O)cc(F)c1-n1cc(CC2CCC2)c2ncc(-c3c(C)noc3C)cc21` [P-0108, 4-(3-(cyclobutylmethyl)-6-(3,5-dimethylisoxazol-4-yl)-1H-pyrrolo[3,2-b]pyridin-1-yl)-3-ethoxy-5-fluorobenzoic acid] fall in the same range of IC50: 0.0001 to 1 µM for the first, 0.0001 to 1 µM for the second.

`Cc1noc(C)c1-c1cnc2c(-c3ccccc3C#N)cn(C(C)(c3ccccn3)c3ccccn3)c2c1` [P-0169, 2-(1-(1,1-di(pyridin-2-yl)ethyl)-6-(3,5-dimethylisoxazol-4-yl)-1H-pyrrolo[3,2-b]pyridin-3-yl)benzonitrile] and `COc1cc(C(=O)O)cc(OC)c1-c1cn(C(C)c2ccccc2)c2cc(-c3c(C)noc3C)cnc12` (stereo not drawn) [P-0119, 4-(6-(3,5-dimethylisoxazol-4-yl)-1-(1-phenylethyl)-1H-pyrrolo[3,2-b]pyridin-3-yl)-3,5-dimethoxybenzoic acid] fall in the same range of IC50: 0.0001 to 1 µM for the first, 0.0001 to 1 µM for the second.

`Cc1noc(C)c1-c1cnc2c(Cc3ccccc3Cl)cn(-c3c(Cl)cc(C(=O)O)cc3Cl)c2c1` [P-0131, 3,5-dichloro-4-(3-(2-chlorobenzyl)-6-(3,5-dimethylisoxazol-4-yl)-1H-pyrrolo[3,2-b]pyridin-1-yl)benzoic acid] and `Cc1noc(C)c1-c1cnc2c(C(=O)c3cccc(OCc4ccccc4)c3)cn(-c3c(Cl)cc(C(=O)O)cc3Cl)c2c1` [P-0133, 4-(3-(3-(benzyloxy)benzoyl)-6-(3,5-dimethylisoxazol-4-yl)-1H-pyrrolo[3,2-b]pyridin-1-yl)-3,5-dichlorobenzoic acid] fall in the same range of IC50: 0.0001 to 1 µM for the first, 0.0001 to 1 µM for the second.

`Cc1noc(C)c1-c1cnc2c(c1)c(-c1ccc(C(=O)O)cc1OC(F)(F)F)cn2CC1CC(F)(F)C1` [P-0157, 4-(1-((3,3-difluorocyclobutyl)methyl)-5-(3,5-dimethylisoxazol-4-yl)-1H-pyrrolo[2,3-b]pyridin-3-yl)-3-(trifluoromethoxy)benzoic acid] and `Cc1noc(C)c1-c1cnc2c(c1)c(-c1ccc(C(=O)O)cc1OCC1CC1)cn2[C@@H](C)c1ccccn1` [P-0138, (S)-3-(cyclopropylmethoxy)-4-(5-(3,5-dimethylisoxazol-4-yl)-1-(1-(pyridin-2-yl)ethyl)-1H-pyrrolo[2,3-b]pyridin-3-yl)benzoic acid] fall in the same range of IC50: 0.0001 to 1 µM for the first, 0.0001 to 1 µM for the second.
